Test results published in the NIST ThermoML archive (doi:10.1016/j.jct.2015.05.005).
± gives the expanded uncertainty stated by the source.

Conditions: Liquid mixture 1, Pendant drop shape

Compound: O=C=O [carbon dioxide] + O
- interfacial tension (298.4 K, 6830 kPa): 31 ± 0.49 mN/m
- interfacial tension (298.5 K, 7200 kPa): 30.99 ± 0.4 mN/m
- interfacial tension (298.5 K, 8100 kPa): 31.09 ± 0.33 mN/m
- interfacial tension (298.6 K, 6490 kPa): 30.79 ± 1.9 mN/m
- interfacial tension (298.6 K, 8970 kPa): 30.98 ± 0.34 mN/m
- interfacial tension (298.6 K, 10630 kPa): 30.73 ± 0.34 mN/m
- interfacial tension (298.6 K, 13180 kPa): 30.62 ± 0.37 mN/m
- interfacial tension (298.6 K, 15150 kPa): 30.81 ± 0.42 mN/m
- interfacial tension (298.6 K, 20830 kPa): 29.84 ± 0.49 mN/m
